Results on three compounds are retold here after publication PMC4721923 (PLoS ONE, 2015).

Values joined by “and” are separate entries in the source; they are usually repeats but may differ in a detail not shown here. Equal entries are not always repeated. Where two headings read alike, the source gives them in different places. A value given as a limit tells only on which side of the number the result lay.

The subject of series [1] is OCT1. The settings on record: cited from earlier work.
Series [2] relates to OCT3. Also noted: method as in PMID 23506881. The settings on record: cited from earlier work.
Series [3] deals with T1, OCT1 (Homo sapiens, UniProt O15245).
T1 construct: containing the full length SLC22A1 cDNA (NM_003057) encoding the human OCT1 protein; expressed in transfected cells
T1 sequence (O15245 1-554): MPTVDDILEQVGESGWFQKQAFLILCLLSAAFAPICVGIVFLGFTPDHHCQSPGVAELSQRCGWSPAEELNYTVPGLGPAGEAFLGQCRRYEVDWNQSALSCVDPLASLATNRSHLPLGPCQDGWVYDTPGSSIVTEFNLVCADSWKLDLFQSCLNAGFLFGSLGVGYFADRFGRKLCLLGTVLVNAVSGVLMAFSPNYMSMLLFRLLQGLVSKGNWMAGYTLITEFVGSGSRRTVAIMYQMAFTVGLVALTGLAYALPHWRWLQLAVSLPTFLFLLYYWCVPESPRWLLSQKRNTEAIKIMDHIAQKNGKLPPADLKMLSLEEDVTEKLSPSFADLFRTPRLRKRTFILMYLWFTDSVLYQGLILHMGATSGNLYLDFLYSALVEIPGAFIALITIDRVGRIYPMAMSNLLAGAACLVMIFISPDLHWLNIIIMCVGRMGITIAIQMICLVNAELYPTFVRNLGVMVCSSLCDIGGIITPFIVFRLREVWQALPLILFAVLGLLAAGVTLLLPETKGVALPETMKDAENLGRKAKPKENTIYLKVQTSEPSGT
The series is described as follows: Flow cytometric ASP+-uptake inhibition, HEK-OCT1. Format: cell-based. The settings on record: HEK-OCT1; 1 μM ASP+; ± SEM (N = 3); read-out: IC50, inhibition of ASP+-uptake. How it is done:
(§1) The previously described fluorescent substrate of organic cation transporters, 4-(4-dimethylaminostyryl)-N-methylpyridinium (ASP^+), was used to determine the function of OCT1 and OCT3 by flow cytometry in the absence and the presence of bendamustine and selected bendamustine esters. HEK293 cells expressing the transporter of interest were trypsinized and washed twice with PBS, prior to re-suspension of 0.5 · 10^6 cells in 500 μL of PBS containing 2% (v/v) FCS. The cells were incubated with ASP^+ (100 μM stock solution in PBS containing 10% DMSO) for 5 minutes, allowing for cellular accumulation, and subsequently analyzed with a FACSCalibur flow cytometer. ASP^+ was excited at 488 nm and the fluorescence was measured using a 530/30 nm and a 585/42 band-pass filter. At least 1 · 10^4 single cells were analyzed by appropriate FSC/SSC gating.
(§2) The cells were pre-incubated with the respective test compound at different concentrations at room temperature for 10 minutes. Afterwards, ASP^+ was added to a final concentration of 1 μM, and the samples were incubated at 37°C in the dark for 5 minutes. Subsequently, the cells were washed, re-suspended in ice-cold PBS/FCS and stored on ice in the dark until measurement.
(§3) The normalized mean fluorescence intensities of the OCT expressing cells, set to 100% in the absence of an inhibitor, were calculated by subtracting the mean fluorescence intensity of unspecific ASP^+ uptake into HEK-Co control cells. The normalized fluorescence intensities in the presence of an inhibitor were plotted against the logarithm of the concentrations of the test compounds to calculate IC50 values. The “log (inhibitor) vs. normalized response-variable slope” equation of GraphPad Prism 5.01 was used for this purpose.

The target in series [4] is T2, OCT3 (Homo sapiens, UniProt O75751).
T2 construct: expressed in transfected cells; host or cells: HEK293 (HEK-OCT3)
T2 sequence (O75751 1-556): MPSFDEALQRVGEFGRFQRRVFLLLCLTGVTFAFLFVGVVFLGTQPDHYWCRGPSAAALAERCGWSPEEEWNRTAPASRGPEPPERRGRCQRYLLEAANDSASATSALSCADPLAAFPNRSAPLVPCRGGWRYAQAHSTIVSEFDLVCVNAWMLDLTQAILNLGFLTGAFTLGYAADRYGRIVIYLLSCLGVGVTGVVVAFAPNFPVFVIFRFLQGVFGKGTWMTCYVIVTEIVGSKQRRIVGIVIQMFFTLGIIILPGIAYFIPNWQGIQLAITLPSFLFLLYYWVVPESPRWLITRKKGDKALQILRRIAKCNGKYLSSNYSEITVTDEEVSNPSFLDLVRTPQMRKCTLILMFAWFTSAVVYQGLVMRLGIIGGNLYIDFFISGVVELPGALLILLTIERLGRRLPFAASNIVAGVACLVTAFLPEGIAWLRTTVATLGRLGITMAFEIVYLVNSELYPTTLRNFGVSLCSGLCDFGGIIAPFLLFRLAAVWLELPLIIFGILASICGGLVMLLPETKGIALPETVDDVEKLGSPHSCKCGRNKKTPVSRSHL
The series can be described thus: Flow cytometric ASP+-uptake inhibition, HEK-OCT3. The settings on record: HEK-OCT3; 1 μM ASP+; ± SEM (N = 3); read-out: IC50, inhibition of ASP+-uptake. Format: cell-based. The protocol: as §1, §2, §3
Background: In flow cytometry, cells or beads pass a laser one at a time.

Series [5] addresses T1, OCT1. Also on record: method as in PMID 15389554. The settings on record: microtiter assay; cited from earlier work.
Series [6] addresses T2, OCT3. The series is described as follows: Confocal laser scanning microscopy of ASP+ uptake, HEK-OCT3. Format: cell-based. The settings on record: compound 5 15 μM; TPA 200 μM; ASP+ 1 μM. How it is done: (§4) HEK-Co, HEK-OCT1 and HEK-OCT3 cells were seeded into 8-well μ-Slides (Ibidi, Munich, Germany) (2 · 10^4 cells/well) and allowed to attach for 48 hours. Prior to the staining procedure, the medium was replaced by PBS and the DNA probe Draq5 (5 μM) (Biostatus, Shepshed, UK) was added to each well. […] Subsequently, ASP^+ was added to reach a concentration of 1 μM, and the cells were incubated for 5 minutes in the dark. Imaging was performed with an Axiovert 200 M confocal microscope coupled to a Zeiss LSM 510 scanning device (Carl Zeiss, Oberkochen, Germany) using a Plan-Apochromat 63x/1.40 oil immersion objective. Draq5 was excited at 633 nm and fluorescence was detected using a 650 nm long-pass filter, ASP^+ was excited at 488 nm and detected using a 565/35 nm band-pass filter.

In series [7] the target is T1, OCT1. The series can be described thus: Confocal laser scanning microscopy of ASP+ uptake, HEK-OCT1. Format: cell-based. The settings on record: compound 5 15 μM; TPA 200 μM; ASP+ 1 μM. The protocol:
as §4

In series [8] the test system is OCT3. Also on record: method as in PMID 23982114. The settings on record: microtiter assay; cited from earlier work.

In the case of `N.N.[Cl][Pt][Cl]` [cisplatin], in the series with OCT1 [1], the IC50 – broadly, the concentration needed to halve the response being measured – was > 100 µM.
Turning to `O=C1c2c(O)ccc(O)c2C(=O)c2c(NCCNCCO)ccc(NCCNCCO)c21` [mitoxantrone], the IC50 with OCT3 [2] was 440 µM.
Regarding `CCCCC[N+](CCCCC)(CCCCC)CCCCC` [TPA, tetrapentyl ammonium, reference compound], the IC50 on OCT1 [3] was 6.04 µM and 6 µM; at OCT3 [4], 19.9 ± 2.2 µM; at OCT1 [5] it was 7.9 µM; in the series on OCT3 [8], 28 µM. Also, on OCT3 [6], the “effect on OCT3 activity (ASP+ uptake, imaging)” value is given as “inhibited”. Also, the “effect on OCT1 activity (ASP+ uptake, imaging)” value at OCT1 [7] is listed as “inhibited”.
